Source: patent publication US20220169643A1, “ESTROGEN RECEPTOR DEGRADING PROTACS” (AstraZeneca AB, priority 2019, published 2022)

These compounds were tested against T1, Estrogen Receptor Alpha Ligand binding domain (ER alpha-LBD (GST)) (Homo sapiens, UniProt P03372) (assay: ERα Binding Assay (LanthaScreen TR-FRET competition)). Settings: competitive displacement of Fluormone ES2 tracer from recombinant human ER alpha-LBD (residues 307-554), 4 hours at room temperature.
T1 construct: made in house
T1 sequence (P03372 307-554): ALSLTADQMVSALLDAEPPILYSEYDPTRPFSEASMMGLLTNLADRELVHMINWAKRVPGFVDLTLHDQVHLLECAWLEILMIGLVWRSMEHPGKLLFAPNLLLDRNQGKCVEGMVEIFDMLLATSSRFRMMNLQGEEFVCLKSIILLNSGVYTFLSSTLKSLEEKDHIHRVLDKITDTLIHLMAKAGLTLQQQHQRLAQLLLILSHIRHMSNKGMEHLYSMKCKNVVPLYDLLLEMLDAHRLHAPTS
Description: The ability of compounds to bind to isolated Estrogen Receptor Alpha Ligand binding domain (ER alpha-LBD (GST)) was assessed in competition assays using a LanthaScreen™ Time-Resolved Fluorescence Resonance Energy Transfer (TR-FRET) detection end-point. For the LanthaScreen TR-FRET endpoint, a suitable fluorophore (Fluormone ES2, ThermoFisher, Product code P2645) and recombinant human Estrogen Receptor alpha ligand binding domain, residues 307-554 (expressed and purified in-house) were used to measure compound binding. The assay principle is that ER alpha-LBD (GST) is added to a fluorescent ligand to form a receptor/fluorophore complex. A terbium-labelled anti-GST antibody (Product code PV3551) is used to indirectly label the receptor by binding to its GST tag, and competitive binding is detected by a test compound's ability to displace the fluorescent ligand, resulting in a loss of TR-FRET signal between the Th-anti-GST antibody and the tracer. The assay was performed as follows with all reagent additions carried out using the Beckman Coulter BioRAPTR FRD microfluidic workstation: • 1. Acoustic dispense 120 nL of the test compound into a black low volume 384 well assay plates. • 2. Prepare 1×ER alpha-LBD/Tb-anti-GST Ab in ES2 screening buffer and incubate for 15 minutes. • 3. Dispense 6 μL of the 1×[…]/Th-anti-GST Ab reagent into each well of the assay plate followed by 6 μL of Fluorophore reagent into each well of the assay plate • 4. Cover the assay plate to protect the reagents from light and evaporation, and incubate at room temperature for 4 hours. • 5. Excite at 337 nm and measure the fluorescent emission signal of each well at 490 nm and 520 nm using the BMG PheraSTAR.
Compounds were dosed directly from a compound source microplate containing serially diluted compound (4 wells containing 10 mM, […] and 10 nM final compound respectively) to an assay microplate using the Labcyte Echo 550. The Echo 550 is a liquid handler that uses acoustic technology to perform direct microplate-to-microplate transfers of DMSO compound solutions and the system can be programmed to transfer multiple small nL volumes of compound from the different source plate wells to give the desired serial dilution of compound in the assay which is then back-filled to normalise the DMSO concentration across the dilution range.
In total 120 nL of compound plus DMSO were added to each well and compounds were tested in a 12-point concentration response format over a final compound concentration range of 10, 2.917, 1.042, 0.2083, 0.1, 0.0292, 0.0104, 0.002083, 0.001, 0.0002917, 0.0001042, and 0.00001 μM respectively. TR-FRET dose response data obtained with each compound was exported into a suitable software package (such as Origin or Genedata) to perform curve fitting analysis. Competitive ER alpha binding was expressed as an IC50 value. This was determined by calculation of the concentration of compound that was required to give a 50% reduction in tracer compound binding to ER alpha-LBD.

Structure (SMILES) | IC50 [nM]
C[C@@H]1Cc2c([nH]c3ccccc23)[C@@H](c2cnc(N3CCC(CN4CCN(CC5CCN(c6ccc7c(c6)CN(C6CCC(=O)NC6=O)C7=O)CC5)CC4)CC3)nc2)N1CC(C)(C)F (some centres unmarked) [Example 6] | 5.6
COc1cc(N2CCN(CCCC3CCN(c4ncc([C@@H]5c6[nH]c7ccccc7c6C[C@@H](C)N5CC(C)(C)F)cn4)CC3)CC2)cc2c1C(=O)N(C1CCC(=O)NC1=O)C2 (stereo partly drawn) [Example 13, 3-(5-{4-[3-(1-{5-[(1R,3R)-2-(2-fluoro-2-methylpropyl)-3-methyl-2,3,4,9-tetrahydro-1H-beta-carbolin-1-yl]pyrimidin-2-yl}piperidin-4-yl)propyl]piperazin-1-yl}-7-methoxy-1-oxo-1,3-dihydro-2H-isoindol-2-yl)piperidine-2,6-dione] | 3
C[C@@H]1Cc2c([nH]c3ccccc23)[C@@H](c2cnc(N3CCC4(CCN(CCN5CCN(c6ccc7c(c6)CN(C6CCC(=O)NC6=O)C7=O)CC5=O)CC4)CC3)nc2)N1CC(C)(C)F (stereo partly drawn) [Example 26, 3-(5-{4-[2-(9-{5-[(1R,3R)-2-(2-fluoro-2-methylpropyl)-3-methyl-2,3,4,9-tetrahydro-1H-beta-carbolin-1-yl]pyrimidin-2-yl}-3,9-diazaspiro[5.5]undecan-3-yl)ethyl]-3-oxopiperazin-1-yl}-1-oxo-1,3-dihydro-2H-isoindol-2-yl)piperidine-2,6-dione] | 18
C[C@@H]1Cc2c([nH]c3ccccc23)[C@@H](c2cnc(N3CCC4(CCN(CCC5CCN(c6ccc7c(c6)CN(C6CCC(=O)NC6=O)C7=O)CC5)CC4)CC3)nc2)N1CC(C)(C)F (stereo partly drawn) [Example 10, 3-(5-{4-[2-(9-{5-[(1R,3R)-2-(2-fluoro-2-methylpropyl)-3-methyl-2,3,4,9-tetrahydro-1H-beta-carbolin-1-yl]pyrimidin-2-yl}-3,9-diazaspiro[5.5]undecan-3-yl)ethyl]piperidin-1-yl}-1-oxo-1,3-dihydro-2H-isoindol-2-yl)piperidine-2,6-dione] | 22.3
C[C@@H]1Cc2c([nH]c3ccccc23)[C@@H](c2cnc(N3CCC(CN(C)C4CN(CC5CCN(c6ccc7c(c6)CN(C6CCC(=O)NC6=O)C7=O)CC5)C4)CC3)nc2)N1CC(C)(C)F (stereo partly drawn) [Example 16, 3-(5-{4-[(3-{[(1-{5-[(1R,3R)-2-(2-fluoro-2-methylpropyl)-3-methyl-2,3,4,9-tetrahydro-1H-beta-carbolin-1-yl]pyrimidin-2-yl}piperidin-4-yl)methyl](methyl)amino}azetidin-1-yl)methyl]piperidin-1-yl}-1-oxo-1,3-dihydro-2H-isoindol-2-yl)piperidine-2,6-dione] | 3
COc1cc(N2CCN(CCC3CCN(c4ncc([C@@H]5c6[nH]c7ccccc7c6C[C@@H](C)N5CC(C)(C)F)cn4)CC3)CC2)cc2c1C(=O)N(C1CCC(=O)NC1=O)C2 (stereo partly drawn) [Example 12, 3-(5-{4-[2-(1-{5-[(1R,3R)-2-(2-fluoro-2-methylpropyl)-3-methyl-2,3,4,9-tetrahydro-1H-beta-carbolin-1-yl]pyrimidin-2-yl}piperidin-4-yl)ethyl]piperazin-1-yl}-7-methoxy-1-oxo-1,3-dihydro-2H-isoindol-2-yl)piperidine-2,6-dione] | 1.5
C[C@@H]1Cc2c([nH]c3ccccc23)[C@@H](c2cnc(N3CCC(OCCCN4CCN(c5ccc6c(c5)CN(C5CCC(=O)NC5=O)C6=O)CC4)CC3)nc2)N1CC(C)(C)F (stereo partly drawn) [Example 38, 3-[5-(4-{3-[(1-{5-[(1R,3R)-2-(2-fluoro-2-methylpropyl)-3-methyl-2,3,4,9-tetrahydro-1H-beta-carbolin-1-yl]pyrimidin-2-yl}piperidin-4-yl)oxy]propyl}piperazin-1-yl)-1-oxo-1,3-dihydro-2H-isoindol-2-yl]piperidine-2,6-dione] | 3.6
C[C@@H]1Cc2c([nH]c3ccccc23)[C@@H](c2cnc(N3CCC(CN4CCN(c5ccc6c(c5)CN(C5CCC(=O)NC5=O)C6=O)CC4)CC3)nc2)N1CC(F)(F)F (stereo partly drawn) [Example 35, 3-(5-{4-[(1-{5-[(1R,3R)-3-methyl-2-(2,2,2-trifluoroethyl)-2,3,4,9-tetrahydro-1H-beta-carbolin-1-yl]pyrimidin-2-yl}piperidin-4-yl)methyl]piperazin-1-yl}-1-oxo-1,3-dihydro-2H-isoindol-2-yl)piperidine-2,6-dione] | 6.9
C[C@@H]1Cc2c([nH]c3ccccc23)[C@@H](c2cnc(N3CCC(OCCN4CCN(c5ccc6c(c5)CN(C5CCC(=O)NC5=O)C6=O)CC4)CC3)nc2)N1CC(C)(C)F (stereo partly drawn) [Example 4, 3-[5-[4-[2-[[1-[5-[(1R,3R)-2-(2-Fluoro-2-methyl-propyl)-3-methyl-1,3,4,9-tetrahydropyrido[3,4-b]indol-1-yl]pyrimidin-2-yl]-4-piperidyl]oxy]ethyl]piperazin-1-yl]-1-oxo-isoindolin-2-yl]piperidine-2,6-dione] | 2.1
C[C@@H]1Cc2c([nH]c3ccccc23)[C@@H](c2cnc(N3CCC4(CCN(CCC5CCN(c6ccc7c(c6)CN(C6CCC(=O)NC6=O)C7=O)CC5)CCO4)CC3)nc2)N1CC(C)(C)F (stereo partly drawn) [Example 17, 3-(5-{4-[2-(3-{5-[(1R,3R)-2-(2-fluoro-2-methylpropyl)-3-methyl-2,3,4,9-tetrahydro-1H-beta-carbolin-1-yl]pyrimidin-2-yl}-7-oxa-3,10-diazaspiro[5.6]dodecan-10-yl)ethyl]piperidin-1-yl}-1-oxo-1,3-dihydro-2H-isoindol-2-yl)piperidine-2,6-dione] | 13.8
C[C@@H]1Cc2c([nH]c3ccccc23)[C@@H](c2cnc(N3CCC(CN4CCN(c5ccc6c(c5)C(=O)N(C5CCC(=O)NC5=O)C6=O)CC4)CC3)nc2)N1CC(C)(C)F (stereo partly drawn) [Example 3, 2-[2,6-Dioxo3-piperidyl]-5-[4-[[1-[5-[(1R,3R)-2-(2-fluoro-2-methyl-propyl)-3-methyl-1,3,4,9-tetrahydropyrido[3,4-b]indol-1-yl]pyrimidin-2-yl]-4-piperidyl]methyl]piperazin-1-yl]isoindoline-1,3-dione] | 3.7
C[C@@H]1Cc2c([nH]c3ccccc23)[C@@H](c2c(F)cc(OCCCCCN3CCN(c4ccc5c(c4)CN(C4CCC(=O)NC4=O)C5=O)CC3)cc2F)N1CC(C)(C)F (stereo partly drawn) [Example 5, 3-[5-[4-[5-[3,5-Difluoro-4-[(1R,3R)-2-(2-fluoro-2-methyl-propyl)-3-methyl-1,3,4,9-tetrahydropyrido[3,4-b]indol-1-yl]phenoxy]pentyl]piperazin-1-yl]-1-oxo-isoindolin-2-yl]piperidine-2,6-dione] | 3.7
C[C@@H]1Cc2c([nH]c3ccccc23)[C@@H](c2cnc(N3CCC(CCN4CCC5(CC4)CCN(c4ccc6c(c4)CN(C4CCC(=O)NC4=O)C6=O)CC5)CC3)nc2)N1CC(C)(C)F (stereo partly drawn) [Example 11, 3-(5-{9-[2-(1-{5-[(1R,3R)-2-(2-fluoro-2-methylpropyl)-3-methyl-2,3,4,9-tetrahydro-1H-beta-carbolin-1-yl]pyrimidin-2-yl}piperidin-4-yl)ethyl]-3,9-diazaspiro[5.5]undecan-3-yl}-1-oxo-1,3-dihydro-2H-isoindol-2-yl)piperidine-2,6-dione] | 1.2
C[C@@H]1Cc2c([nH]c3ccccc23)[C@@H](c2cnc(N3CCC4(CCN(CC5CCN(c6ccc7c(c6)CN(C6CCC(=O)NC6=O)C7=O)CC5)CC4)CC3)nc2)N1CC(C)(C)F (stereo partly drawn) [Example 9, 3-(5-{4-[(9-{5-[(1R,3R)-2-(2-fluoro-2-methylpropyl)-3-methyl-2,3,4,9-tetrahydro-1H-beta-carbolin-1-yl]pyrimidin-2-yl}-3,9-diazaspiro[5.5]undecan-3-yl)methyl]piperidin-1-yl}-1-oxo-1,3-dihydro-2H-isoindol-2-yl)piperidine-2,6-dione] | 8.7
